According to patent US20230135894A1, “MK2 DEGRADERS AND USES THEREOF” (Kymera Therapeutics, Inc., priority 2021, published 2023):

What was measured:
MK2 [1] = biological target: T1, MK2 (Homo sapiens, UniProt P49137); experiment: MK2 degradation in human THP-1 monocytic cells (MSD, 24 h); assay type: cell-based; design: endogenous in cells; conditions: for Dmax: THP-1, THP-1 cells; for DC50: THP-1 cells, read-out: MK2 MSD THP-1 degradation 24 h GMean External Abs DC50
Experimental: MK2 Degradation in Human THP-1 Monoctyic Cells
(§1) The human monocytic cancer cell line THP-1 (ATCC (TIB-202)) was cultured in 96 well plates (Corning 3894) at a density of 200,000 cells per well in 100 microlitres in complete growth medium of RPMI 1640 (Gibco) pus 10% fetal Bovine Serum (Corning) and Penicillin/Streptomycin (SolarBio) at 37 degrees Celsius and 5% CO2. A serial dilution of each compound (usually 3 to 5 fold serial dilutions up to 10 separate concentration points) was added to individual wells from a 10 millimolar stock solution, at a background concentration of 0.1% DMSO and the cells were shaken at 600 rpm for 5 minutes and then were cultured for 24 hours at 37 degrees Celsius and 5% carbon dioxide. Separately, a custom MSD (MesoScaleDiscovery, L15XA-3) plate for detection of human MK2 was prepared by coating the plate with the commercial AbCam ab247272 reagent in 1×Phosphate Buffered Saline at 40 microlitres per well and incubated at 4 degrees Celsius overnight. The next day, the MSD plate was washed with 150 microlitres of Tween buffered saline, blocked with MSD blocking buffer (3% Blocker A from MSD), and washed again.
(§2) The cell plate was centrifuged at 3,200 g for 5 minutes and the supernatant was discarded and 100 microlitres of RIPA lysis buffer (containing proteinase inhibitors, Boston BioProducts BP-115D) was added and the plate was sealed and shaken on ice for 20 minutes. The plate was centrifuged as before and 70 microlitres of sample lysate was added to the MSD plates and they were shaken at room temperature for 1 hour at 600 rpm. The MSD plate was washed 3 times as before and then the primary MK2 detection antibody (Santa Cruz sc-100393) was added at a final concentration of 1 microgram per ml at 25 microlitres per well and shaken at room temperature for 1 hour at 600 rpm.
(§3) After 3 more washes, the secondary detection antibody (SULFO-Tag anti rabbit antibody R32AB-5) was added at a final concentration of 1 microgram per ml at 25 microlitres per well and shaken at room temperature for 1 hour at 600 rpm. After 3 more washes, the 1×MSD (diluted from 5× concentrate with water) reading buffer was added at 150 microlitres per well and read on the MSD instrument Meso Sector S 600.
(§4) The inhibition/degradation curves and DC50 values were plotted and calculated using XL Fit (version v5.3.1.3) using equation 201 and a 4 parameter logistic model whereby fit=(A+((B−A)/(1+((x/C)D))) where A is the Bottom and B is the Top and C is the IC50 and D is the slope and high C is the signal for the DMSO treated cells and Low C is the signal is the signal for the lysis buffer.

MK2 [2] = biological target: T1, MK2; experiment: MK2 degradation in human SW1353 cells (MSD, 24 h); assay type: cell-based; design: endogenous in cells; host or cells: SW-1353 (ATCC HTB-94); conditions: for Dmax: read-out: MK2 MSD SW 1353 24 h Dmax %; for DC50: read-out: MK2 MSD SW1353 degradation 24 h GMean External Abs DC50
Experimental: MK2 Degradation in Human SW1353 Cells
as §1, with “chondrocyte” for “monocytic”, “SW-1353 (ATCC(HTB-94))” for “THP-1 (ATCC (TIB-202))”, “Leibovitz's L-15 Medium” for “RPMI 1640”, “Celsius.” for “Celsius and 5% CO2.”, “Celsius.” for “Celsius and 5% carbon dioxide.”
as §2, §3, §4

T1 sequence (P49137 whole entry): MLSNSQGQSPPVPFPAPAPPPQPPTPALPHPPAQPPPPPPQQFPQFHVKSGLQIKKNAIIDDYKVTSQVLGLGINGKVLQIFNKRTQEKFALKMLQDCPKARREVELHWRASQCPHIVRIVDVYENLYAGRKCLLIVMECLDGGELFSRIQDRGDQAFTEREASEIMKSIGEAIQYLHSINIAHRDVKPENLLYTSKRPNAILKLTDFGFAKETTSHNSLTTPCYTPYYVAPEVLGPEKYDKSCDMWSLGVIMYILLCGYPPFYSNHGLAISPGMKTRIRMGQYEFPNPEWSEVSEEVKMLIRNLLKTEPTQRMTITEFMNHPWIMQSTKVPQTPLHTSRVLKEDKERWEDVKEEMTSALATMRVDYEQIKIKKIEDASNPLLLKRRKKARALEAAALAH

Structure (SMILES) | Dmax (MK2 [1]) [%] | DC50 (MK2 [1]) [nM] | Dmax (MK2 [2]) [%] | DC50 (MK2 [2]) [nM]
CN1CC2(CNC(=O)c3c2[nH]c2c3CCc3cnc(-c4ccc(CN5CCC(OCC#Cc6ccc7c(c6)n(C)c(=O)n7C6CCC(=O)NC6=O)CC5)cc4F)cc3-2)C1 (stereo not shown) [Compound I-1] | < 50 | > 100 | < 50 | > 100
CN1CC2(CNC(=O)c3c2[nH]c2c3CCc3cnc(-c4ccc(CN5CCC(OCC#Cc6cccc7c6n(C)c(=O)n7C6CCC(=O)NC6=O)CC5)cc4F)cc3-2)C1 (stereo not shown) [Compound I-2] | < 50 | > 100 | < 50 | > 100
C[C@@H]1CNc2c(sc3ccc4nc(-c5cccc(N6CCN(C(=O)COCCOCCc7cccc8c7n(C)c(=O)n8C7CCC(=O)NC7=O)CC6)c5)ccc4c23)C(=O)N1 (stereo partly shown) [Compound I-34] | > 75 | < 1 | > 75 | < 1
C[C@@H]1CNc2c(sc3ccc4nc(-c5cccc(N6CCN(C(=O)COCCOCCOCCOCCc7ccc8c(c7)n(C)c(=O)n8C7CCC(=O)NC7=O)CC6)c5)ccc4c23)C(=O)N1 (stereo partly shown) [Compound I-36] | > 75 | 1 to 10 | > 75 | 1 to 10
C[C@@H]1CNc2c(sc3ccc4nc(-c5ccc(N6CCN(C(=O)COCCOCCOCCOCCc7ccc8c(c7)n(C)c(=O)n8C7CCC(=O)NC7=O)CC6)cc5)ccc4c23)C(=O)N1 (stereo partly shown) [Compound I-43] | > 75 | < 1 | > 75 | < 1
C[C@@H]1CNc2c(sc3ccc4nc(-c5cccc(C#CCNC(=O)COCCOCCc6cccc7c6n(C)c(=O)n7C6CCC(=O)NC6=O)c5)ccc4c23)C(=O)N1 (stereo partly shown) [Compound I-50] | > 75 | 1 to 10 | > 75 | 1 to 10
C[C@@H]1CNc2c(sc3ccc4nc(-c5cccc(C#CCCNC(=O)COCCOCCOCCOCCc6ccc7c(c6)n(C)c(=O)n7C6CCC(=O)NC6=O)c5)ccc4c23)C(=O)N1 (stereo partly shown) [Compound I-51] | > 75 | 1 to 10 | > 75 | 1 to 10
C[C@@H]1CNc2c(sc3ccc4nc(-c5ccc(CNC(=O)COCCOCCOCCOCCc6cccc7c6n(C)c(=O)n7C6CCC(=O)NC6=O)cc5)ccc4c23)C(=O)N1 (stereo partly shown) [Compound I-92] | > 75 | 1 to 10 | > 75 | 1 to 10
C[C@@H]1CNc2c(sc3ccc4nc(-c5cccc(N6CCN(CCCc7cccc8c7n(C)c(=O)n8C7CCC(=O)NC7=O)CC6)c5)ccc4c23)C(=O)N1 (stereo partly shown) [Compound I-93] | > 75 | < 1 | > 75 | 1 to 10
C[C@@H]1CNc2c(sc3ccc4nc(-c5cccc(N6CCN(CCCCCc7cccc8c7n(C)c(=O)n8C7CCC(=O)NC7=O)CC6)c5)ccc4c23)C(=O)N1 (stereo partly shown) [Compound I-94] | > 75 | < 1 | > 75 | 1 to 10
C[C@@H]1CNc2c(sc3ccc4nc(-c5cccc(N6CCN(CCCCCCCc7cccc8c7n(C)c(=O)n8C7CCC(=O)NC7=O)CC6)c5)ccc4c23)C(=O)N1 (stereo partly shown) [Compound I-95] | > 75 | < 1 | > 75 | 1 to 10
C[C@@H]1CNc2c(sc3ccc4nc(-c5cccc(N6CCC(CN7CCC(c8cccc9c8n(C)c(=O)n9C8CCC(=O)NC8=O)CC7)CC6)c5)ccc4c23)C(=O)N1 (stereo partly shown) [Compound I-96] | > 75 | < 1 | > 75 | 1 to 10
C[C@@H]1CNc2c(sc3ccc4nc(-c5ccc(N6CCC(CN7CCC(c8cccc9c8n(C)c(=O)n9C8CCC(=O)NC8=O)CC7)CC6)cc5)ccc4c23)C(=O)N1 (stereo partly shown) [Compound I-98] | > 75 | < 1 | > 75 | < 1
C[C@@H]1CNc2c(sc3ccc4nc(-c5ccc(N6CCC(CN7CCC(c8cccc9c8n(C)c(=O)n9C8CCC(=O)NC8=O)CC7)CC6)nc5)ccc4c23)C(=O)N1 (stereo partly shown) [Compound I-99] | > 75 | < 1 | > 75 | < 1
C[C@@H]1CNc2c(sc3ccc4nc(-c5cncc(N6CCN(C(=O)COCCOCCc7cccc8c7n(C)c(=O)n8C7CCC(=O)NC7=O)CC6)c5)ccc4c23)C(=O)N1 (stereo partly shown) [Compound I-100] | > 75 | 1 to 10 | > 75 | 1 to 10

More lines, now with the values ahead:

Dmax (MK2 [1]) [%] | DC50 (MK2 [1]) [nM] | Dmax (MK2 [2]) [%] | DC50 (MK2 [2]) [nM] | Structure (SMILES)
> 75 | 10 to 100 | > 75 | 10 to 100 | C[C@@H]1CNc2c(sc3ccc4nc(-c5cccc(C#CCCNC(=O)CCCCCCCCCc6ccc7c(c6)n(C)c(=O)n7C6CCC(=O)NC6=O)c5)ccc4c23)C(=O)N1 (stereo partly shown) [Compound I-45]
> 75 | 10 to 100 | > 75 | 1 to 10 | C[C@@H]1CNc2c(sc3ccc4nc(-c5cccc(C#CCCNC(=O)CCCCCCCc6cccc7c6n(C)c(=O)n7C6CCC(=O)NC6=O)c5)ccc4c23)C(=O)N1 (stereo partly shown) [Compound I-48]
> 75 | 1 to 10 | > 75 | 1 to 10 | C[C@@H]1CNc2c(sc3ccc4nc(-c5cccc(C#CCCNC(=O)COCCOCCc6ccc7c(c6)n(C)c(=O)n7C6CCC(=O)NC6=O)c5)ccc4c23)C(=O)N1 (stereo partly shown) [Compound I-49]
50 to 75 | 10 to 100 | > 75 | 10 to 100 | C[C@@H]1CNc2c(sc3ccc4nc(-c5ccc(C#CCCNC(=O)CCCCCCCCCc6ccc7c(c6)n(C)c(=O)n7C6CCC(=O)NC6=O)cc5)ccc4c23)C(=O)N1 (stereo partly shown) [Compound I-53]
– | 10 to 100 | > 75 | – | C[C@@H]1CNc2c(sc3ccc4nc(-c5ccc(C#CCCNC(=O)CCCCCCCCCc6cccc7c6n(C)c(=O)n7C6CCC(=O)NC6=O)cc5)ccc4c23)C(=O)N1 (stereo partly shown) [Compound I-54]
> 75 | 1 to 10 | > 75 | 1 to 10 | C[C@@H]1CNc2c(sc3ccc4nc(-c5ccc(C#CCCNC(=O)CCCCCCCc6ccc7c(c6)n(C)c(=O)n7C6CCC(=O)NC6=O)cc5)ccc4c23)C(=O)N1 (stereo partly shown) [Compound I-55]
> 75 | 1 to 10 | > 75 | 1 to 10 | C[C@@H]1CNc2c(sc3ccc4nc(-c5ccc(CNC(=O)CCCCCCCCCc6cccc7c6n(C)c(=O)n7C6CCC(=O)NC6=O)cc5)ccc4c23)C(=O)N1 (stereo partly shown) [Compound I-86]
> 75 | 1 to 10 | > 75 | 1 to 10 | C[C@@H]1CNc2c(sc3ccc4nc(-c5ccc(CNC(=O)CCCCCCCc6ccc7c(c6)n(C)c(=O)n7C6CCC(=O)NC6=O)cc5)ccc4c23)C(=O)N1 (stereo partly shown) [Compound I-87]
> 75 | 1 to 10 | > 75 | 1 to 10 | C[C@@H]1CNc2c(sc3ccc4nc(-c5ccc(CNC(=O)CCCCCCCc6cccc7c6n(C)c(=O)n7C6CCC(=O)NC6=O)cc5)ccc4c23)C(=O)N1 (stereo partly shown) [Compound I-88]
